Data: ChEMBL document CHEMBL1147257, “New cytotoxic steroidal alkaloids from the Philippine sponge Corticium niger” (J Nat Prod, 2003)

test system: HCT-116; test: Cytotoxicity against human HCT116 cells after 72 hrs by MTS/PMS bioreduction assay; assay type: functional, cell-based; details: HCT-116, 72 h

Compound	IC50
CN[C@@H]1CC[C@]2(C)[C@H]3CC[C@]4(C)[C@@H]([C@H](C)CC5NCCC5C(C)C)CC[C@H]4C3=CC[C@H]2[C@H]1OC(C)=O (some centres undefined)	1.4 µM
CC(C)=C1CCN2[C@@H]1C[C@@H](C)[C@H]1[C@@H]2C[C@H]2C3=CC[C@H]4C[C@H](N(C)C)CC[C@]4(C)[C@H]3CC[C@]12C [PLAKINAMINE I]	10.6 µM
CC(C)C1CCN(C)C1C[C@@H](C)[C@H]1CC[C@H]2C3=CC[C@H]4[C@H](N)C=CC[C@]4(C)[C@H]3CC[C@]12C (some centres undefined) [PLAKINAMINE J]	6.1 µM
CN[C@@H]1CC[C@]2(C)[C@H]3CC[C@]4(C)[C@@H]([C@H](C)CC5NCCC5=C(C)C)CC[C@H]4C3=CC[C@H]2[C@H]1OC(C)=O (some centres undefined) [PLAKINAMINE K]	1.4 µM
